One test concerns the target T1, human V2 receptor (Homo sapiens, UniProt P30518).
T1 construct: expressed in transfected cells; host or cells: 293FT cells
Briefly: V2 receptor binding assay ([3H](Arg8)-vasopressin, crude membranes of 293FT cells). The following applies: receptor binding test, human V2, 293FT cell membranes. Here is the method:
(§1) A summary of the methods is given below.
(§2) Each obtained homogenate was centrifuged for 20 minutes at 50,000×g and 4° C., the sediment was resuspended in a 50 mmol/L Tris hydrochloric acid buffer solution (pH7.4, containing 10 mmol/L magnesium chloride and 0.1% bovine serum albumin), which served as a crude membrane preparation. This crude membrane preparation was added with [^3H] (Arg^8) vasopressin (final concentration: 0.1 nmol/L to 0.4 nmol/L), and each test drug (final concentration: 0.1 nmol/L to lμmol/L or 0.01 nmol/L to 0.1 μmol/L) to 22° C. for 90 minutes. After the end of the reaction, the reaction solution was filtrated using a GF/C glass fiber filter, which had been presoaked in 0.3% polyethyleneimine for two hours. After the GF/C glass fiber filter was dried sufficiently, scintillator was added, and the radioactivity on the filter was measured using a liquid scintillation counter. Binding of [^3H] (Arg^8)-vasopressin in the presence of (Arg^8)-vasopressin, in the amounts of 0.1 μmol/L in the V1b receptor binding assay and 5 μmol/L in the V1a and V2 receptor binding assay, were taken as non-specific binding, and the value obtained by subtracting non-specific binding from the total binding in the absence (Arg^8)-vasopressin served as specific binding.

The target of another test is T2, human V1a receptor (Homo sapiens, UniProt P37288).
T2 construct: expressed in transfected cells; host or cells: 293FT cells
The test can be described thus: V1a receptor binding assay ([3H](Arg8)-vasopressin, crude membranes of 293FT cells). The following applies: receptor binding test, 293FT cell membranes. Here is the method: as §1, §2

The target of another test is T3, human V1b receptor (Homo sapiens, UniProt P47901).
T3 construct: expressed in transfected cells; host or cells: CHO cells
T3 sequence (P47901 1-424): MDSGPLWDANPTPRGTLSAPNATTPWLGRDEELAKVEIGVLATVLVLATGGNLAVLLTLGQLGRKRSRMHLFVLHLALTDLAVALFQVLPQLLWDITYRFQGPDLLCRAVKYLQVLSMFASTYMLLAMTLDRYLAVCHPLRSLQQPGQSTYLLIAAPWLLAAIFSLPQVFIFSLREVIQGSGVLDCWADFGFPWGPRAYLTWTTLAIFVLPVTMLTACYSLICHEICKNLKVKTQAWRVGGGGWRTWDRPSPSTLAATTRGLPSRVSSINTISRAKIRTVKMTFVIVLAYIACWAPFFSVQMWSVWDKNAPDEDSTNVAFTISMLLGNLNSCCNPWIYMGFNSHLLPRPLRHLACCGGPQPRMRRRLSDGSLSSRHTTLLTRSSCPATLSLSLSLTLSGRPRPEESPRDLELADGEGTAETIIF
Briefly: V1b receptor binding assay ([3H](Arg8)-vasopressin, crude membranes of CHO cells). To be noted: receptor binding test, human V1b, CHO cell membranes. Here is the method: as §1, §2
In addition, regarding the V1b receptor binding assay, the value obtained by, subtracting the amount of binding in the presence of 0.1 μmol/L test drug from the total amount of binding, divided by the amount of specific binding, served as the rate of inhibition (% of inhibition) of the test drug at the concentration tested.

T2 sequence (P37288 whole entry): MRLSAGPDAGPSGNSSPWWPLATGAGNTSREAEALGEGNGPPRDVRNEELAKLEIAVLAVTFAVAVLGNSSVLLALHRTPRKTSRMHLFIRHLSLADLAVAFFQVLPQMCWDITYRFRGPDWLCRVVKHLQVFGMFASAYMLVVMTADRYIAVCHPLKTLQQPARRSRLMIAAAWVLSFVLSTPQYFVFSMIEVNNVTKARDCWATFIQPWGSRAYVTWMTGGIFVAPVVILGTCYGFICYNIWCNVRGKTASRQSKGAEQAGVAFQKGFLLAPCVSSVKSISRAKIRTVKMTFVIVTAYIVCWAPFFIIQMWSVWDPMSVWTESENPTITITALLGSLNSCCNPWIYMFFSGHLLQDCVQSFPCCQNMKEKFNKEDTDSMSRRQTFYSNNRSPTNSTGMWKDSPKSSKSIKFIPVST
T1 sequence (P30518 whole entry): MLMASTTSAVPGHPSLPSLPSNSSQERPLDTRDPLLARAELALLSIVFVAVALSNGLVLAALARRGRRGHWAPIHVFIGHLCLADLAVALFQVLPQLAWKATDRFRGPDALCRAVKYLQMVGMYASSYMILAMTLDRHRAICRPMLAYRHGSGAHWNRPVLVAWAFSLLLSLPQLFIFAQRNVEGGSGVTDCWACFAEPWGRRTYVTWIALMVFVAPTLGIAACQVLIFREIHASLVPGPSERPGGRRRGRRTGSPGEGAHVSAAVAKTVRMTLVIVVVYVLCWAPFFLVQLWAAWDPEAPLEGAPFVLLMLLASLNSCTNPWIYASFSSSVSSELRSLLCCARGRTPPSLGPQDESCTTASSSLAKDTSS

Turning to `COc1ccc(S(=O)(=O)N2C(=O)C(c3cc(C)ccc3OC)(N3C[C@H](OCC(N)=O)C[C@H]3C(=O)N(C)C)c3cc(Cl)ccc32)c(OC(F)(F)F)c1` (single isomer, unassigned) [Example 147], the IC50 (as a rule, the concentration that gives 50% inhibition) at human V2 receptor was determined as 5650 nM; on human V1a receptor it was 1110 nM; at human V1b receptor, 1.2 nM.
For the compound `COc1ccc(S(=O)(=O)N2C(=O)C(c3cc(C)ccc3OC)(N3CCCC[C@H]3C(=O)N(C)C)c3cc(Cl)ccc32)c(OC(F)(F)F)c1` (single isomer, unassigned) [Example 116], the IC50 on human V2 receptor was more than 10000 nM; at human V1a receptor, 653 nM; at human V1b receptor, 2.9 nM.
The matching figures for `COc1ccc(S(=O)(=O)N2C(=O)C(c3cc(C)ccc3OC)(N3C[C@H](O)C[C@H]3C(=O)N(C)C)c3cc(Br)cnc32)c(OC(F)(F)F)c1` (single isomer, unassigned) [Example 120]: more than 10000 nM, 6790 nM and 11 nM.
As for `COc1ccc(S(=O)(=O)N2C(=O)C(c3cc(C)ccc3OC)(N3C[C@H](O)C[C@H]3C(=O)N(C)C)c3cc(Cl)ccc32)c(OC(F)(F)F)c1` (single isomer, unassigned) [Example 103], the IC50 on human V2 receptor worked out at 3370 nM; on human V1a receptor it was 504 nM; on human V1b receptor it was 2.3 nM.
Consider `COc1ccc(S(=O)(=O)N2C(=O)C(c3cc(C)ccc3OC)(N3C[C@H](OCCCN(C)C)C[C@H]3C(=O)N(C)C)c3cc(Cl)ccc32)c(OC(F)(F)F)c1` (single isomer, unassigned) [Example 140], for which the IC50 on human V2 receptor came out at 3190 nM; on human V1a receptor it was 355 nM; at human V1b receptor, 1.1 nM.
As to `COc1ccc(S(=O)(=O)N2C(=O)C(c3cc(CN(C)C)ccc3OC)(N3C[C@H](O)C[C@H]3C(=O)N(C)C)c3cc(Cl)ccc32)c(OC(F)(F)F)c1` (single isomer, unassigned) [Example 195 A], the figures for the IC50 on human V2 receptor, on human V1a receptor and at human V1b receptor were more than 10000 nM, 573 nM and 0.56 nM, respectively.
Consider `COc1ccc(S(=O)(=O)N2C(=O)C(c3cc(C)ccc3OC)(N3C[C@H](O)C[C@H]3C(=O)N(C)C)c3cc(C#N)ccc32)c(OC(F)(F)F)c1` (single isomer, unassigned) [Example 126], for which the IC50 on human V2 receptor is more than 10000 nM; on human V1a receptor, 8240 nM; on human V1b receptor, 15 nM.
Take `COc1ccc(S(=O)(=O)N2C(=O)C(c3ccccc3OC)(N3Cc4ccccc4C[C@H]3C(=O)N(C)C)c3cc(Cl)ccc32)c(OC(F)(F)F)c1` (single isomer, unassigned) [Example 38 A]: the half-maximal inhibitory concentration (IC50) was more than 10000 nM on human V2 receptor, more than 10000 nM at human V1a receptor and 31 nM at human V1b receptor.
`COc1ccc(S(=O)(=O)N2C(=O)C(c3cc(-c4ccncc4)ccc3OC)(N3C[C@H](O)C[C@H]3C(=O)N(C)C)c3cc(Cl)ccc32)c(OC(F)(F)F)c1` (single isomer, unassigned) [Example 192]: the results for the IC50 on human V2 receptor, on human V1a receptor and at human V1b receptor were more than 10000 nM, 792 nM and 4.3 nM, respectively.
As to `COc1ccc(S(=O)(=O)N2C(=O)C(c3ccccc3OC)(N(C)[C@@H](C)C(=O)N(C)C)c3cc(Cl)ccc32)c(OC(F)(F)F)c1` (single isomer, unassigned) [Example 71], the IC50 on human V2 receptor is more than 10000 nM; on human V1a receptor, 4050 nM; on human V1b receptor, 6.3 nM.
Take `COc1ccc(S(=O)(=O)N2C(=O)C(c3ccccc3OC)(N3C[C@H](O)C[C@H]3C(=O)N(C)C)c3cc(Cl)ccc32)c(OC(F)(F)F)c1` (single isomer, unassigned) [Example 2]: the IC50 worked out at 4010 nM at human V2 receptor, 743 nM on human V1a receptor and 2.6 nM on human V1b receptor.
The matching figures for `COc1ccc(S(=O)(=O)N2C(=O)C(c3ccccc3OC)(N3CCOC[C@H]3C(=O)N(C)C)c3cc(Cl)ccc32)c(OC(F)(F)F)c1` (single isomer, unassigned) [Example 41]: more than 10000 nM, 3760 nM and 7.1 nM.
With `COc1ccc(S(=O)(=O)N2C(=O)C(c3cc(CCO)ccc3OC)(N3C[C@H](O)C[C@H]3C(=O)N(C)C)c3cc(Cl)ccc32)c(OC(F)(F)F)c1` (single isomer, unassigned) [Example 217], the half-inhibitory concentration (IC50) at human V2 receptor worked out at 3100 nM; at human V1a receptor, 404 nM; at human V1b receptor, 0.96 nM.
For the compound `COc1ccc(S(=O)(=O)N2C(=O)C(c3cccnc3OC)(N3C[C@H](O)C[C@H]3C(=O)N(C)C)c3cc(Cl)ccc32)c(OC(F)F)c1` (single isomer, unassigned) [Example 170], the values for the IC50 at human V2 receptor, at human V1a receptor and on human V1b receptor were 4050 nM, 65.1 nM and 0.56 nM, respectively.
Turning to `COc1ccc(S(=O)(=O)N2C(=O)C(N[C@@H](C)C(=O)N(C)C)(c3ccccc3OC)c3cc(Cl)ccc32)c(OC(F)(F)F)c1` (single isomer, unassigned) [Example 61], the IC50 on human V2 receptor is more than 10000 nM; on human V1a receptor, 1470 nM; on human V1b receptor, 15 nM.
The matching figures for `COc1ccc(S(=O)(=O)N2C(=O)C(c3ccccc3OC)(N3CCC[C@H]3C(=O)N(C)C)c3cc(Cl)ccc32)c(OC(F)(F)F)c1` (single isomer, unassigned) [Example 5, 1-(5-chloro-3-(2-methoxyphenyl)-1-{[4-methoxy-2-(trifluoromethoxy)phenyl]sulfonyl}-2-oxo-2,3-dihydro-1H-indol-3-yl)-N,N-dimethyl-L-prolinamide]: more than 10000 nM, 2180 nM and 16 nM.
For the compound `COc1ccc(S(=O)(=O)N2C(=O)C(O[C@@H](C)C(=O)N(C)C)(c3ccccc3OC)c3cc(Cl)ccc32)c(OC(F)(F)F)c1` (single isomer, unassigned) [Example 81], the IC50 was more than 10000 nM at human V2 receptor, 677 nM at human V1a receptor and 18 nM on human V1b receptor.
`COc1ccc(S(=O)(=O)N2C(=O)C(c3cc(N4CCOCC4)ccc3OC)(N3C[C@H](O)C[C@H]3C(=O)N(C)C)c3cc(Cl)ccc32)c(OC(F)(F)F)c1` (single isomer, unassigned) [Example 191]: the values for the IC50 on human V2 receptor, on human V1a receptor and at human V1b receptor were 3340 nM, 293 nM and 1.8 nM, respectively.
